The text below walks through data of US20090304692A1, “TRIAZINE COMPOUNDS AS PI3 KINASE AND MTOR INHIBITORS” (Wyeth, priority 2008, published 2009).

The test system of experiment [1] is human breast MDA-MB-361 tumor cell line. The experiment in a line: In vitro cell culture growth assay (MTS), MDA-MB-361. The conditions noted are these: Homo sapiens, MTS cell growth assay, three days after drug treatment, MDA-MB-361 cells, read-out: IC50 MDA-MB-361. The experiment is classed as cell-based. (In general: Formazan colour is commonly taken as a measure of viable cells.)

For experiment [2], the system named is human prostate PC3-mm2 tumor cell line. As to the kind of experiment: In vitro cell culture growth assay (MTS), PC3-mm2. Type of experiment: cell-based. The note with it: Homo sapiens, PC3MM2, 72 h, MTS cell growth assay, three days after drug treatment, PC3-mm2 cells; read-out: IC50 PC3-mm2.
Another experiment addresses Human mTOR (FLAG-TOR) (Homo sapiens, UniProt P42345). The experiment in a line: mTOR kinase assay (DELFIA format, purified enzyme). Type of experiment: biochemical. The note with it: read-out: IC50 mTOR.
For the next experiment, the target named is PI3K-α (Homo sapiens, UniProt P42336). The experiment in a line: PI3K-alpha fluorescence polarization assay. Background: Fluorescence polarisation rises when a labelled molecule tumbles more slowly, as on binding a larger partner.
Sequence of PI3K-α (P42336 whole entry, species assumed): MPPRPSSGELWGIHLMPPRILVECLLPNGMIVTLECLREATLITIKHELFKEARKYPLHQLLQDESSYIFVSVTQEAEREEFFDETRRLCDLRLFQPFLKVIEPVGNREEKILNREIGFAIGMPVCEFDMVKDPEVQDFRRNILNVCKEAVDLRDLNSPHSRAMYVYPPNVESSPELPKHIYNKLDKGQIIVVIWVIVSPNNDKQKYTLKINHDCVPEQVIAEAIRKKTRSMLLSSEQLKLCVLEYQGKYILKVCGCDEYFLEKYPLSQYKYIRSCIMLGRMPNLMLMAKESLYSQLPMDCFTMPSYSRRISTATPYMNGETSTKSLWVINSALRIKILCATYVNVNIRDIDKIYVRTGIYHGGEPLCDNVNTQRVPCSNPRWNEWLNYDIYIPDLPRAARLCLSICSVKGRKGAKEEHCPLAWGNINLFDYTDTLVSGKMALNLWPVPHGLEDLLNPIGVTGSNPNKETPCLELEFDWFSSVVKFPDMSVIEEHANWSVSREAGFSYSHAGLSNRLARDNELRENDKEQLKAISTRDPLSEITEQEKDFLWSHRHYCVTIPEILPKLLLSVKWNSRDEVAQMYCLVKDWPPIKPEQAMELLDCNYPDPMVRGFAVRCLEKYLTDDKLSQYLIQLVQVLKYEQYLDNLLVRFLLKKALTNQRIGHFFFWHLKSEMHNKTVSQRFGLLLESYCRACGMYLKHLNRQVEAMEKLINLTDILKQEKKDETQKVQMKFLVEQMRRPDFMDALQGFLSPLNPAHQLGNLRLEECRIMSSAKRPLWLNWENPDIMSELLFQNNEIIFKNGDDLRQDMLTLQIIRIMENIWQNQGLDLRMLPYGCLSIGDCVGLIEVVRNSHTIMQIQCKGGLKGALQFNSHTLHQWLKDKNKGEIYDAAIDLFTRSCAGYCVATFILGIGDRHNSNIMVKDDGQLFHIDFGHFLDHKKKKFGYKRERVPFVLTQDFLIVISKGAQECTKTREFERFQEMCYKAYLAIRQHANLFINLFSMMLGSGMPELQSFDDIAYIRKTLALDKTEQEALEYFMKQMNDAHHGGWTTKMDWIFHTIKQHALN
Sequence of PI3K-α (P27986 whole entry partner, species assumed): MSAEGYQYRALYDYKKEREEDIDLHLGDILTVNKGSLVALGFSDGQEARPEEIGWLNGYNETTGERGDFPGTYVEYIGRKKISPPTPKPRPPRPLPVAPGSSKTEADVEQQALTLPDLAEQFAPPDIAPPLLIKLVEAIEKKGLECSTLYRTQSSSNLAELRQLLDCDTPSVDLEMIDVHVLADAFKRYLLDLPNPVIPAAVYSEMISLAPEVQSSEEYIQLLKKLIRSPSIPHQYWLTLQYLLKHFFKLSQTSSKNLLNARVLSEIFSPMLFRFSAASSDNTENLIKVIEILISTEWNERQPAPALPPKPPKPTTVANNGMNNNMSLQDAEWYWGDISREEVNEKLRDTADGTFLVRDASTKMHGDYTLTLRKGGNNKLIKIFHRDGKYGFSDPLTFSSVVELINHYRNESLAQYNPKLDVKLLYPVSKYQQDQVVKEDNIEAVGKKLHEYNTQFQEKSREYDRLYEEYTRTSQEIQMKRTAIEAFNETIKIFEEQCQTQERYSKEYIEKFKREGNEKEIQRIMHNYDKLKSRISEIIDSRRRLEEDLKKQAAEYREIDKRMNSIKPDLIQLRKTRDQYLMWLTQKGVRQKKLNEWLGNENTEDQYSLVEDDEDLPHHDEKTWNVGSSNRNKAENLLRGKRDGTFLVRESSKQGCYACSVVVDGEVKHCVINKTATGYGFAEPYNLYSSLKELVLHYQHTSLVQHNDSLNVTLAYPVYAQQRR
In another experiment the target is PI3K-γ (Homo sapiens, UniProt P48736). As to the kind of experiment: PI3K-gamma fluorescence polarization assay.
Sequence of PI3K-γ (P48736 whole entry, species assumed): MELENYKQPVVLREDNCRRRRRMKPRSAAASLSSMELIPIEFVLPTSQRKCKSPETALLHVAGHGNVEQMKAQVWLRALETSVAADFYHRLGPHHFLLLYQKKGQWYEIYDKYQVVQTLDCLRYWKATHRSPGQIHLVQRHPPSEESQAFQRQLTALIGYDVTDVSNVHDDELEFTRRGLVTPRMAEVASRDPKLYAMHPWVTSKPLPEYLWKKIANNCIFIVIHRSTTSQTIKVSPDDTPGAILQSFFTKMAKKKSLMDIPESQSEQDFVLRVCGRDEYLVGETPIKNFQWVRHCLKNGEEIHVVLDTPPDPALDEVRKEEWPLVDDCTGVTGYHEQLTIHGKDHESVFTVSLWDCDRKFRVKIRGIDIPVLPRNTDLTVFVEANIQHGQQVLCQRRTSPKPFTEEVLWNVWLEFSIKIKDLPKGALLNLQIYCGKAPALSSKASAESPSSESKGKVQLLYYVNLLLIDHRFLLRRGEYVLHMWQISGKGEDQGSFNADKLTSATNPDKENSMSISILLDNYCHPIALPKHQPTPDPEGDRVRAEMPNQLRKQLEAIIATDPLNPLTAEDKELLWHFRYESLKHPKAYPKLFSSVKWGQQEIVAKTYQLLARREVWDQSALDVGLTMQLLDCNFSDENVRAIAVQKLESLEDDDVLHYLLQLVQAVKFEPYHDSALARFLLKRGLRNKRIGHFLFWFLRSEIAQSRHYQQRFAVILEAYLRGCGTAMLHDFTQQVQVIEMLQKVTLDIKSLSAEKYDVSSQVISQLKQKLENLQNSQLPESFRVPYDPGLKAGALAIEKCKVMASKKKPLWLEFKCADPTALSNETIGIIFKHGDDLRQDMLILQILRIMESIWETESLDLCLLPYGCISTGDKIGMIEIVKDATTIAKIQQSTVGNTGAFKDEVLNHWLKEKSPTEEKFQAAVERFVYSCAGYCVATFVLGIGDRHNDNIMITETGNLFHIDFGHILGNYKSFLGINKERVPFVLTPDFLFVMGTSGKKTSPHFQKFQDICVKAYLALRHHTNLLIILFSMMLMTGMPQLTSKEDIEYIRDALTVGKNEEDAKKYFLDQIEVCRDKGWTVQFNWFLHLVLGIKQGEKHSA

By IC50 is commonly meant the midpoint of a concentration-inhibition curve.

Like-named read-outs stand apart in the source and are kept apart here.

Sequence of Human mTOR (FLAG-TOR) (P42345 1360-2549 limits assumed): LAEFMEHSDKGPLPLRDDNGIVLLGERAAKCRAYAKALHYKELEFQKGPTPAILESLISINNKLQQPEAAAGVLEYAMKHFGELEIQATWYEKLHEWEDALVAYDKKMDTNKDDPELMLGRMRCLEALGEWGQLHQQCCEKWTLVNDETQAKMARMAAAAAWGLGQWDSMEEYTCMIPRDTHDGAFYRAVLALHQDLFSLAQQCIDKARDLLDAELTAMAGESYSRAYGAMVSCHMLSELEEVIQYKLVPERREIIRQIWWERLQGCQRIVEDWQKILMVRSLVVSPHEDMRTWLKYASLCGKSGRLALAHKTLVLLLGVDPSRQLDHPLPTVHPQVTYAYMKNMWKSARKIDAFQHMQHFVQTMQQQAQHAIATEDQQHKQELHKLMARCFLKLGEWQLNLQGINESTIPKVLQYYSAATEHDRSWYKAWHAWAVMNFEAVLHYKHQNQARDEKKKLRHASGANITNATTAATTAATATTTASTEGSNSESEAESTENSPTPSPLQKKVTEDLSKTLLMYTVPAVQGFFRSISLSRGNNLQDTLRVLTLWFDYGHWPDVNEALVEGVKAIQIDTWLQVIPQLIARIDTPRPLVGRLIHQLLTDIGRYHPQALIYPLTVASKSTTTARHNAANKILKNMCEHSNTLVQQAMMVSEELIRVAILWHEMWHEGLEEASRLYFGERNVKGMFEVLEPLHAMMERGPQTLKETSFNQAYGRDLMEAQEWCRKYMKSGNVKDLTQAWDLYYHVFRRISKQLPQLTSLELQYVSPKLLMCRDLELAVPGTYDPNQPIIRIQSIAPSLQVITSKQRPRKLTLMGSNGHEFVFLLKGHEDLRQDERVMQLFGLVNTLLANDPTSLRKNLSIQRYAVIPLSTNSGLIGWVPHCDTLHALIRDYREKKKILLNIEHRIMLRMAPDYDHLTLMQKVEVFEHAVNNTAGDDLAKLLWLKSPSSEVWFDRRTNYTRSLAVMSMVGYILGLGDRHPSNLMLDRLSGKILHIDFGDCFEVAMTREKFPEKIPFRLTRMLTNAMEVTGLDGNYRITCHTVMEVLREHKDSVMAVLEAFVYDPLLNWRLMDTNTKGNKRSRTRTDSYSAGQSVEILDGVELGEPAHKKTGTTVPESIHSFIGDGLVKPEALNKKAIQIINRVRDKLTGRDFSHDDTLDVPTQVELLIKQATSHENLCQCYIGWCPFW

Take `CN1CCN(C(=O)c2ccc(NC(=O)Nc3ccc(-c4nc(N5CCCCC5)nc(N5CCOCC5)n4)cc3)cc2)CC1` [Example 597, 1-{4-[(4-methylpiperazin-1-yl)carbonyl]phenyl}-3-[4-(4-morpholin-4-yl-6-piperidin-1-yl-1,3,5-triazin-2-yl)phenyl]urea]: the concentration for half-maximal inhibition (IC50) in experiment [1] (MDA-MB-361, 72 h) came out at 45 nM; in experiment [2], 229 nM; at Human mTOR (FLAG-TOR), 11 nM; at PI3K-α (read-out: IC50 PI3Kα), 5 nM; on PI3K-γ (read-out: IC50 PI3Kγ) it was 58 nM.

For the compound `CN(C)C1CCN(C(=O)c2ccc(NC(=O)Nc3ccc(-c4nc(N5CCCCC5)nc(N5CCOCC5)n4)cc3)cc2)CC1` [Example 598, 1-(4-{[4-(dimethylamino)piperidin-1-yl]carbonyl}phenyl)-3-[4-(4-morpholin-4-yl-6-piperidin-1-yl-1,3,5-triazin-2-yl)phenyl]urea], the concentration for half-maximal inhibition (IC50) was determined as 22 nM in experiment [1] (MDA-MB-361, 72 h); 214 nM in experiment [2]; 10 nM at Human mTOR (FLAG-TOR); 5.5 nM on PI3K-α (read-out: IC50 PI3Kα); 40 nM on PI3K-γ (read-out: IC50 PI3Kγ).

As to `CN(C)C1CCN(C(=O)c2ccc(NC(=O)Nc3ccc(-c4nc(N5CCCC5)nc(N5CCOCC5)n4)cc3)cc2)CC1` [Example 602, 1-(4-{[4-(dimethylamino)piperidin-1-yl]carbonyl}phenyl)-3-[4-(4-morpholin-4-yl-6-pyrrolidin-1-yl-1,3,5-triazin-2-yl)phenyl]urea], the IC50 was found to be 17 nM in experiment [1] (MDA-MB-361, 72 h); 122 nM in experiment [2]; 11 nM on Human mTOR (FLAG-TOR); 7 nM on PI3K-α (read-out: IC50 PI3Kα); 46.5 nM at PI3K-γ (read-out: IC50 PI3Kγ).

`CC(C)N1CCN(C(=O)c2ccc(NC(=O)Nc3ccc(-c4nc(N5CCCC5)nc(N5CCOCC5)n4)cc3)cc2)CC1` [Example 603, 1-(4-{[4-(1-methylethyl)piperazin-1-yl]carbonyl}phenyl)-3-[4-(4-morpholin-4-yl-6-pyrrolidin-1-yl-1,3,5-triazin-2-yl)phenyl]urea]: the IC50 was 17 nM in experiment [1] (MDA-MB-361, 72 h); 137 nM in experiment [2]; 17 nM on Human mTOR (FLAG-TOR); 8.5 nM at PI3K-α (read-out: IC50 PI3Kα); 50.5 nM on PI3K-γ (read-out: IC50 PI3Kγ).

For the compound `CN(C)CCN(C)C(=O)c1ccc(NC(=O)Nc2ccc(-c3nc(N4CCCC4)nc(N4CCOCC4)n3)cc2)cc1` [Example 604, N-[2-(dimethylamino)ethyl]-N-methyl-4-({[4-(4-morpholin-4-yl-6-pyrrolidin-1-yl-1,3,5-triazin-2-yl)phenyl]carbamoyl}amino)benzamide], the IC50 in experiment [1] (72 h) was determined as 4 nM; in experiment [2], 73 nM; at Human mTOR (FLAG-TOR), 10 nM; on PI3K-α (read-out: IC50 PI3Kα) it was 3.5 nM; at PI3K-γ (read-out: IC50 PI3Kγ) it was 55.5 nM.

Take `CN(C)CCN(C)C(=O)c1ccc(NC(=O)Nc2ccc(-c3nc(N4CCCCC4)nc(N4CCOCC4)n3)cc2)cc1` [Example 605, N-[2-(dimethylamino)ethyl]-N-methyl-4-({[4-(4-morpholin-4-yl-6-piperidin-1-yl-1,3,5-triazin-2-yl)phenyl]carbamoyl}amino)benzamide]: the IC50 was 7 nM in experiment [1] (72 h); 92 nM in experiment [2]; 3 nM on Human mTOR (FLAG-TOR); 2.2 nM at PI3K-α (read-out: IC50 PI3Kα); 46 nM at PI3K-γ (read-out: IC50 PI3Kγ).

As to `CCN1CCN(C(=O)c2ccc(NC(=O)Nc3ccc(-c4nc(N5CCCC5)nc(N5CCOCC5)n4)cc3)cc2)CC1` [Example 606, 1-{4-[(4-ethylpiperazin-1-yl)carbonyl]phenyl}-3-[4-(4-morpholin-4-yl-6-pyrrolidin-1-yl-1,3,5-triazin-2-yl)phenyl]urea], the IC50 in experiment [1] (MDA-MB-361, 72 h) worked out at 28 nM; in experiment [2], 173 nM; on Human mTOR (FLAG-TOR) it was 26 nM; at PI3K-α (read-out: IC50 PI3Kα), 12 nM; at PI3K-γ (read-out: IC50 PI3Kγ), 87 nM.

As to `CN1CCN(C(=O)c2ccc(NC(=O)Nc3ccc(-c4nc(N5CCCC5)nc(N5CCOCC5)n4)cc3)cc2)CC1` [Example 607, 1-{4-[(4-methylpiperazin-1-yl)carbonyl]phenyl}-3-[4-(4-morpholin-4-yl-6-pyrrolidin-1-yl-1,3,5-triazin-2-yl)phenyl]urea], the IC50 is 24 nM in experiment [1] (MDA-MB-361, 72 h); 213 nM in experiment [2]; 19 nM at Human mTOR (FLAG-TOR); 12 nM at PI3K-α (read-out: IC50 PI3Kα); 94 nM at PI3K-γ (read-out: IC50 PI3Kγ).

Regarding `CN(C)CCNC(=O)c1ccc(NC(=O)Nc2ccc(-c3nc(N4CCCC4)nc(N4CCOCC4)n3)cc2)cc1` [Example 608, N-[2-(dimethylamino)ethyl]-4-({[4-(4-morpholin-4-yl-6-pyrrolidin-1-yl-1,3,5-triazin-2-yl)phenyl]carbamoyl}amino)benzamide], the IC50 in experiment [1] (72 h) stood at 52 nM; in experiment [2] it was 298 nM; on Human mTOR (FLAG-TOR), 5 nM; on PI3K-α (read-out: IC50 PI3Kα), 9 nM; at PI3K-γ (read-out: IC50 PI3Kγ), 107 nM.

As to `C[C@H]1COCCN1c1nc(-c2ccc(NC(=O)Nc3ccncc3)cc2)nc(N2CCOC[C@@H]2C)n1` [Example 609, 1-(4-{4,6-bis[(3S)-3-methylmorpholin-4-yl]-1,3,5-triazin-2-yl}phenyl)-3-pyridin-4-ylurea], the 50% inhibitory concentration (IC50) in experiment [1] (MDA-MB-361, 72 h) was 24 nM; in experiment [2] it was 26 nM; at Human mTOR (FLAG-TOR), 3 nM; on PI3K-α it was 11.5 nM; at PI3K-γ, 93.5 nM.

Consider `CN(C)CCCNC(=O)c1ccc(NC(=O)Nc2ccc(-c3nc(N4CCCCC4)nc(N4CCOCC4)n3)cc2)cc1` [Example 610, N-[3-(dimethylamino)propyl]-4-({[4-(4-morpholin-4-yl-6-piperidin-1-yl-1,3,5-triazin-2-yl)phenyl]carbamoyl}amino)benzamide], for which the IC50 in experiment [1] (72 h) stood at 28 nM; in experiment [2], 297 nM; on Human mTOR (FLAG-TOR), 5 nM; on PI3K-α (read-out: IC50 PI3Kα) it was 3.5 nM; on PI3K-γ (read-out: IC50 PI3Kγ) it was 50.5 nM.

In the case of `COCCNC(=O)c1ccc(NC(=O)Nc2ccc(-c3nc(N4CCCCC4)nc(N4CCOCC4)n3)cc2)cc1` [Example 611, N-(2-methoxyethyl)-4-({[4-(4-morpholin-4-yl-6-piperidin-1-yl-1,3,5-triazin-2-yl)phenyl]carbamoyl}amino)benzamide], the IC50 stood at 194 nM in experiment [1] (72 h); 581 nM in experiment [2]; 13 nM at Human mTOR (FLAG-TOR); 18.5 nM on PI3K-α (read-out: IC50 PI3Kα); 152 nM on PI3K-γ (read-out: IC50 PI3Kγ).

On to `O=C(Nc1ccc(C(=O)N2CCCC2)cc1)Nc1ccc(-c2nc(N3CCCC3)nc(N3CCOCC3)n2)cc1` [Example 612, 1-[4-(4-morpholin-4-yl-6-pyrrolidin-1-yl-1,3,5-triazin-2-yl)phenyl]-3-[4-(pyrrolidin-1-ylcarbonyl)phenyl]urea], for which the 50% inhibitory concentration (IC50) was determined as 38 nM in experiment [1] (MDA-MB-361, 72 h); 227 nM in experiment [2]; 61 nM at Human mTOR (FLAG-TOR); 5.5 nM on PI3K-α (read-out: IC50 PI3Kα); 67 nM on PI3K-γ (read-out: IC50 PI3Kγ).

Take `CCN1CCN(C(=O)c2ccc(NC(=O)Nc3ccc(-c4nc(N5CCOC[C@@H]5C)nc(N5CCOC[C@@H]5C)n4)cc3)cc2)CC1` [Example 613, 1-(4-{4,6-bis[(3S)-3-methylmorpholin-4-yl]-1,3,5-triazin-2-yl}phenyl)-3-{4-[(4-ethylpiperazin-1-yl)carbonyl]phenyl}urea]: the concentration for half-maximal inhibition (IC50) in experiment [1] (72 h) was determined as 6 nM; in experiment [2], 21 nM; on Human mTOR (FLAG-TOR), 1 nM; on PI3K-α (read-out: IC50 PI3Kα), 3.8 nM; at PI3K-γ (read-out: IC50 PI3Kγ) it was 53.5 nM.

Turning to `CC(C)N1CCN(C(=O)c2ccc(NC(=O)Nc3ccc(-c4nc(N5CCOC[C@@H]5C)nc(N5CCOC[C@@H]5C)n4)cc3)cc2)CC1` [Example 614, 1-(4-{4,6-bis[(3S)-3-methylmorpholin-4-yl]-1,3,5-triazin-2-yl}phenyl)-3-(4-{[4-(1-methylethyl)piperazin-1-yl]carbonyl}phenyl)urea], the half-inhibitory concentration (IC50) in experiment [1] (72 h) worked out at 4 nM; in experiment [2], 15 nM; on Human mTOR (FLAG-TOR) it was 1 nM; at PI3K-α (read-out: IC50 PI3Kα), 2.7 nM; at PI3K-γ (read-out: IC50 PI3Kγ), 32.5 nM.

For the compound `COC(=O)c1ccc(NC(=O)Nc2ccc(-c3nc(N4CCOCC4)nc(N4CCOC[C@@H]4C)n3)cc2)cc1` [Example 615, methyl 4-{[(4-{4-[(3S)-3-methylmorpholin-4-yl]-6-morpholin-4-yl-1,3,5-triazin-2-yl}phenyl)carbamoyl]amino}benzoate], the 50% inhibitory concentration (IC50) in experiment [1] (72 h) was found to be 88 nM; in experiment [2], 123 nM; on Human mTOR (FLAG-TOR), 1 nM; at PI3K-α (read-out: IC50 PI3Kα), 26.5 nM; at PI3K-γ (read-out: IC50 PI3Kγ) it was 116 nM.

As for `C[C@H]1COCCN1c1nc(-c2ccc(NC(=O)Nc3ccc(C(=O)N4CCC(N(C)C)CC4)cc3)cc2)nc(N2CCOC[C@@H]2C)n1` [Example 616, 1-(4-{4,6-bis[(3S)-3-methylmorpholin-4-yl]-1,3,5-triazin-2-yl}phenyl)-3-(4-{[4-(dimethylamino)piperidin-1-yl]carbonyl}phenyl)urea], the IC50 came out at 4 nM in experiment [1] (MDA-MB-361, 72 h); 21 nM in experiment [2]; 1 nM at Human mTOR (FLAG-TOR); 4 nM on PI3K-α (read-out: IC50 PI3Kα); 58.5 nM on PI3K-γ (read-out: IC50 PI3Kγ).

For `C[C@H]1COCCN1c1nc(-c2ccc(NC(=O)Nc3ccc(C(=O)N4CCN(C)CC4)cc3)cc2)nc(N2CCOCC2)n1` [Example 617, 1-(4-{4-[(3S)-3-methylmorpholin-4-yl]-6-morpholin-4-yl-1,3,5-triazin-2-yl}phenyl)-3-{4-[(4-methylpiperazin-1-yl)carbonyl]phenyl}urea], the half-maximal inhibitory concentration (IC50) in experiment [1] (MDA-MB-361, 72 h) is 4 nM; in experiment [2] it was 17 nM; at Human mTOR (FLAG-TOR), 1 nM; on PI3K-α (read-out: IC50 PI3Kα), 2.5 nM; on PI3K-γ (read-out: IC50 PI3Kγ) it was 27 nM.
